# Values of other authors as cited in article PMC4269829 (Cancer cell, 2014).
# Columns and labels:
# [1] = tested on: ALK variant with L1196M mutation; details: crizotinib-resistant L1196M mutation; ref Friboulet et al., 2014
# [2] = tested on: ALK variant with I1171T mutation; details: crizotinib-resistant I1171T mutation; ref Friboulet et al., 2014
# ALK with F1174 mutation = details: ref Friboulet et al., 2014
compound,measurement,setting,value
Cc1cc(Nc2ncc(Cl)c(Nc3ccccc3S(=O)(=O)C(C)C)n2)c(OC(C)C)cc1C1CCNCC1 [ceritinib],inhibition of ALK variant (in words),[1],inhibit
same,inhibition of ALK variant (in words),[2],inhibit
same,overcoming resistance of ALK mutation (in words),ALK with F1174 mutation,not to overcome resistance
